Measured values published in ChEMBL document CHEMBL1201862, “PubChem BioAssay data set” (2004).
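Test compounds were applied to cells in 96-well plates for 48 hours at 5 doses. GI50 is the concentration that inhibits growth by half.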 The source made the active and inactive calls. Cut-off read from the data, not from the text of the source: active = GI50 up to about 1.1 µM and inactive = higher.

Assays:
Assay in all cases: NCI anticancer screen, dose series, 48 h
[1] = tested on: 786-0
[2] = tested on: ACHN
[3] = tested on: EKVX
[4] = tested on: HCT-15
[5] = tested on: HOP-62
[6] = tested on: HOP-92
[7] = tested on: IGROV-1
[8] = tested on: K562
[9] = tested on: MOLT-4
[10] = tested on: NCI-H23
[11] = tested on: NCI-H460
[12] = tested on: SR
[13] = tested on: U-251
[14] = tested on: UACC-257
[15] = tested on: UACC-62
[16] = tested on: OVCAR-4
[17] = tested on: SK-MEL-2
[18] = tested on: SF-268

Structure (SMILES) | GI50 [1] | GI50 [2] | GI50 [3] | GI50 [4] [µM] | GI50 [5] | GI50 [6] | GI50 [7] | GI50 [8] | GI50 [9] | GI50 [10] | GI50 [11] | GI50 [12] | GI50 [13] | GI50 [14] | GI50 [15] | GI50 [16] | GI50 [17] | GI50 [18]
O=C1CCC(=O)C(C(=O)CCC(=O)Nc2cccc(Cl)c2)C1 (stereo unspecified) | > 100 µM (inactive) | > 100 µM (inactive) | > 100 µM (inactive) | > 100 | > 100 µM (inactive) | > 100 µM (inactive) | > 100 µM (inactive) | > 100 µM (inactive) | > 100 µM (inactive) | > 100 µM (inactive) | > 100 µM (inactive) | > 100 µM (inactive) | > 100 µM (inactive) | > 100 µM (inactive) | > 100 µM (inactive) |  |  | 
CCOC(=O)CC1COc2ccc3c(c21)OCO3 (stereo unspecified) | > 100 µM (inactive) | > 100 µM (inactive) | > 100 µM (inactive) | > 100 | > 100 µM (inactive) | > 100 µM (inactive) | > 100 µM (inactive) | > 100 µM (inactive) | > 100 µM (inactive) | > 100 µM (inactive) | > 100 µM (inactive) | > 100 µM (inactive) | > 100 µM (inactive) | > 100 µM (inactive) | > 100 µM (inactive) | > 100 µM (inactive) | > 100 µM (inactive) | 
COc1ccc(C2NC3=C(CCCC3)N2)cc1 | 41.1 µM (inactive) | > 100 µM (inactive) |  | 44.8 | > 100 µM (inactive) | 54.2 µM (inactive) | > 100 µM (inactive) |  | 59.3 µM (inactive) | 67 µM (inactive) | 45 µM (inactive) | 44.8 µM (inactive) | 53.8 µM (inactive) | > 100 µM (inactive) |  | > 100 µM (inactive) | 43.8 µM (inactive) | > 100 µM (inactive)
CCOC(=O)c1oc2c(OC)ccc3c2c1CCC3 | > 100 µM (inactive) | > 100 µM (inactive) | > 100 µM (inactive) | > 100 | > 100 µM (inactive) | 86.9 µM (inactive) | > 100 µM (inactive) | 66.8 µM (inactive) | 37.1 µM (inactive) | 96.4 µM (inactive) | > 100 µM (inactive) | > 100 µM (inactive) | > 100 µM (inactive) | 0.404 µM (active) | > 100 µM (inactive) | > 100 µM (inactive) | > 100 µM (inactive) | > 100 µM (inactive)
CCCOP1(=O)C=C(O)C(Cl)=C(C)C1 (stereo unspecified) | > 100 µM (inactive) | > 100 µM (inactive) | > 100 µM (inactive) | > 100 | > 100 µM (inactive) | > 100 µM (inactive) | > 100 µM (inactive) | > 100 µM (inactive) | > 100 µM (inactive) | > 100 µM (inactive) | > 100 µM (inactive) | > 100 µM (inactive) | > 100 µM (inactive) | > 100 µM (inactive) | > 100 µM (inactive) | > 100 µM (inactive) | 40.6 µM (inactive) | > 100 µM (inactive)
COC(=O)/C(=N/Nc1cccc(Cl)c1)C(C(=O)C(=O)Nc1cccc(Cl)c1C)c1nc2ccccc2nc1C (stereo unspecified) | > 100 µM (inactive) | 11.6 µM (inactive) | > 100 µM (inactive) |  | 38.3 µM (inactive) |  | 41.7 µM (inactive) | 32.2 µM (inactive) | > 100 µM (inactive) | > 100 µM (inactive) | 48.8 µM (inactive) | 90.4 µM (inactive) |  | > 100 µM (inactive) | 24.6 µM (inactive) | 68.5 µM (inactive) | 38.5 µM (inactive) | > 100 µM (inactive)
O/N=C\C(=N/O)Nc1ccc(Cc2ccc(NC(/C=N\O)=N/O)cc2)cc1 | 58.6 µM (inactive) | 31.6 µM (inactive) | 25.4 µM (inactive) | 75.3 | 27.4 µM (inactive) | 25.8 µM (inactive) | 34.4 µM (inactive) | 37.9 µM (inactive) | 30.8 µM (inactive) | 55.5 µM (inactive) | 34.8 µM (inactive) |  | 37.5 µM (inactive) | 56.1 µM (inactive) | 21.2 µM (inactive) | 57.9 µM (inactive) | 50.7 µM (inactive) | > 100 µM (inactive)
O=C1C(=O)N(c2ccc(Cl)cc2)C(=O)/C(=N/c2cccc3c(=O)[nH][nH]c(=O)c23)C1c1nc2ccccc2o1 (stereo unspecified) | > 100 µM (inactive) | > 100 µM (inactive) | > 100 µM (inactive) | > 100 | > 100 µM (inactive) | 84.9 µM (inactive) | > 100 µM (inactive) | > 100 µM (inactive) | > 100 µM (inactive) | > 100 µM (inactive) | > 100 µM (inactive) | > 100 µM (inactive) | > 100 µM (inactive) | > 100 µM (inactive) | > 100 µM (inactive) | > 100 µM (inactive) | > 100 µM (inactive) | > 100 µM (inactive)
N#C/C(=C\c1ccc(O)c(O)c1)C(=O)NC1CCC(CC2CCC(NC(=O)/C(C#N)=C/c3ccc(O)c(O)c3)CC2)CC1 (stereo unspecified) | 1.27 µM (inactive) | 0.718 µM (active) | 3.48 µM (inactive) | 0.461 | 1.89 µM (inactive) | 1.55 µM (inactive) | 1.71 µM (inactive) | 0.564 µM (active) | 0.743 µM (active) | 1.3 µM (inactive) | 0.283 µM (active) | 0.424 µM (active) | 0.973 µM (active) | 2.84 µM (inactive) | 1.59 µM (inactive) | 3.32 µM (inactive) | 2 µM (inactive) | 1.93 µM (inactive)
